In publication PMC9913425, “Pentacyclic Triterpenoids-Based Ionic Compounds: Synthesis, Study of Structure–Antitumor Activity Relationship, Effects on Mitochondria and Activation of Signaling Pathways of Proliferation, Genome Reparation and Early Apoptosis” (Cancers, 2023):

Assays:
[1] = test system: p53; experiment: Luminex xMAP panel, p53 protein content; format: cell-based; conditions: Jurkat cells; 12a 0.006 µM, 13d 0.004 µM per 100,000 cells; first 6 h
[2] = test system: ATR kinase; experiment: Luminex xMAP DNA Damage/Genotoxicity panel, ATR kinase content; format: cell-based; conditions: Jurkat cells; 12a 0.006 µM, 13d 0.004 µM per 100,000 cells; 6 and 12 h
[3] = test system: STAT3; experiment: Luminex xMAP Multi-Pathway 9-plex, tyrosine-phosphorylated STAT3; format: cell-based; conditions: Jurkat cells; 12a 0.006 µM, 13d 0.004 µM per 100,000 cells; up to 12 h; compared with STAT5 (3-fold)
Source text: The determination of proteins in a cell by Luminex xMAP technology is characterized by the presence of multiplex multiparametric analysis with the simultaneous use of a multiplex of antibodies with a fluorescent label and magnetic particles, thereby resulting in an increase in the sensitivity of the technique and expansion of the dynamic range, as well as an increase in detection accuracy. Luminex XMAP technology provides a simultaneous analysis of a sufficient number of different proteins in various types of biological fluids (plasma, serum, cerebrospinal fluid, follicular fluid, tissue lysate, etc.) and in cell supernatants. […]
Magnetic microspheres (stained inside with two fluorescent dyes) in combination with monoclonal antibodies against the analyzed analytes (the main intracellular kinases in this case) are incubated with the samples and standards; then, the samples/standards are incubated with biotinylated monoclonal antibodies against the analyzed analytes and, finally, with a solution of streptavidin–phycoerythrin. The Luminex technology identifies the different proteins present in each well and converts the mean fluorescence intensity (MFI) of each measured cytokine to pg/mL using software and standard curves. […]
The specific role of STAT3 and STAT5 was assessed by changes in the content of tyrosine-phosphorylated forms of these proteins (STAT3(ph) and STAT5(ph)). […]

[4] = test system: Chk1; experiment: Luminex xMAP DNA Damage/Genotoxicity panel, phosphorylated Chk1; format: cell-based; conditions: Jurkat cells; 12a 0.006 µM, 13d 0.004 µM per 100,000 cells; 6 and 12 h
Source text: [Worded in the source for another target; used here, by the source, with some conditions changed.] (§1) The determination of proteins in a cell by Luminex xMAP technology is characterized by the presence of multiplex multiparametric analysis with the simultaneous use of a multiplex of antibodies with a fluorescent label and magnetic particles, thereby resulting in an increase in the sensitivity of the technique and expansion of the dynamic range, as well as an increase in detection accuracy. Luminex XMAP technology provides a simultaneous analysis of a sufficient number of different proteins in various types of biological fluids (plasma, serum, cerebrospinal fluid, follicular fluid, tissue lysate, etc.) and in cell supernatants. Consequently, multiplexing saves time/costs and ensures the same conditions for the measurements, which is essential for significance and statistical processing.
(§2) Magnetic microspheres (stained inside with two fluorescent dyes) in combination with monoclonal antibodies against the analyzed analytes (the main intracellular kinases in this case) are incubated with the samples and standards; then, the samples/standards are incubated with biotinylated monoclonal antibodies against the analyzed analytes and, finally, with a solution of streptavidin–phycoerythrin. The Luminex technology identifies the different proteins present in each well and converts the mean fluorescence intensity (MFI) of each measured cytokine to pg/mL using software and standard curves. This approach is successfully applied in fundamental and clinical research. In this work, we analyzed various protein analytes that make up the phosphorylated and non-phosphorylated fractions of the main kinases in the signaling pathways: CREB, JNK, NFkB, p38, ERK1/2, Akt, p70S6K, STAT3, STAT5 proteins in six samples of lysates of Jurkat tumor cells by Luminex technology (MILLIPLEX® MAP 9-Plex Multi-Pathway 9-plex Magnetic Bead Kit).

[5] = test system: p21; experiment: Luminex xMAP panel, p21 protein content; format: cell-based; conditions: Jurkat cells; 12a 0.006 µM, 13d 0.004 µM per 100,000 cells; first 6 h
[6] = test system: Jurkat tumor cells; experiment: Release of cytochrome c from mitochondria (anti-cytochrome C FITC, cytofluorimetry); format: cell-based; conditions: compound at IC50, incubation 3 h
Protocol: Staurosporine (an inhibitor of most kinases in the cell) was taken as a control compound.
Figure 2 Release of cytochrome C from mitochondria under the influence of ionic liquids in Jurkat tumor cells. Anti-cytochrome C FITC antibodies were used for staining. […] Incubation with test compounds was 3 h. TEXT PRINTED IN THE PICTURE: (b) 344: Negative 30.82%; Positive 64.67% | (c) 214: Negative 40.58%; Positive 56.16% | (d) 346: Negative 19.43%; Positive 76.96% DOUBTS OF THE COPYIST ABOUT THIS PICTURE: The picture prints only sample codes (344, 214, 346; each followed by '/ E3'), not compound numbers or names; these codes are used as labels. / Panel a (sample code 211-4h, Negative 5.82%, Positive 93.68%) appears to be an untreated control, not a substance, and is left out. / Print is small: b, Negative 30.82% (8 or 6); c, Positive 56.16% (6 or 8); d, Positive 76.96% (6 or 8, 9 or 8).

[7] = test system: mitochondria of Jurkat tumor cells; experiment: Mitochondrial damage (MitoSense Red staining); format: cell-based; conditions: compound at IC50 concentration, incubation 2 h
[8] = test system: Chk2; experiment: Luminex xMAP DNA Damage/Genotoxicity panel, phosphorylated Chk2; format: cell-based; conditions: Jurkat cells; 12a 0.006 µM, 13d 0.004 µM per 100,000 cells; 6 and 12 h
Source text: [Worded in the source for another target; used here, by the source, with some conditions changed.] as §1, §2

[9] = test system: HL60; experiment: In vitro cytotoxicity, IC50 by flow cytometry (Guava ViaCount); format: cell-based, human
How it was run: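 Cells were grown at 37 °C under 5% CO2; the Jurkat, K562 and HL60 lines were kept in RPMI 1640 with 10% FBS, […] and penicillin–streptomycin. Cells were seeded at 5 × 10^4 per well and incubated overnight. IC50 was derived from Guava ViaCount flow cytometry.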

[10] = test system: A2780; experiment: as above; format: cell-based, human
How it was run: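 Suspension lines kept in RPMI 1640 with 10% FBS and […] at 37 °C, 5% CO2; cells seeded at 5 × 10^4 per well and incubated overnight before compound exposure. Viability counted by flow cytometry with Guava ViaCount staining to derive IC50.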

Structure (SMILES)	expression of p53 protein [1]	level of ATR kinase [2]	increase in the content of STAT3 [3]	content of phosphorylated checkpoint kinase Chk1 [4]	expression of p21 protein [5]	cytochrome c release from mitochondria (cytochrome C Negative cells) [6] [%]	Mito-Damage (%) [7] [%]	content of phosphorylated checkpoint kinase Chk2 [8]	IC50 ([9]; HL60 cells) [nM]	IC50 ([10]; A2780 cells) [nM]	IC50 ([9]; Homo sapiens, HL-60, HL60 cells) [nM]	IC50 ([10]; Homo sapiens, A2780, A2780 cells) [nM]
CC(=O)[O-].C[n+]1ccn(CCCCCCOC(=O)[C@]23CCC(C)(C)CC2C2=CCC4[C@@]5(C)CC[C@H](O)C(C)(C)C5CC[C@@]4(C)[C@]2(C)CC3)c1 (stereo partly drawn) [13d, 1-(6-{[(3β)-3-Hydroxyolean-12-en-28-oyl]oxy}hexyl)-3-methylimidazolium Acetate]	significantly increased	significant increase	to a lesser extent	significantly decreases	significantly increased	19.43	97.47	significantly decreases	2 ± 1	16 ± 2	–	–
CC1(C)CC[C@]2(C(=O)OCCCCCC[n+]3ccccc3)CC[C@]3(C)C(=CCC4[C@@]5(C)CC[C@H](O)C(C)(C)C5CC[C@]43C)C2C1 (stereo partly drawn) [12a, 1-(6-{[(3β)-3-Hydroxyolean-12-en-28-oyl]oxy}hexyl)-pyridinium bromide]	significantly increased	significant increase	to a lesser extent	significantly decreases	significantly increased	40.58	97.89	significantly decreases	–	–	3 ± 1	21 ± 2
